This passage reports IC50 and inhibition results from the Kinase Knowledgebase extract (Sharma et al. 2016).

The target of one assay is MAPK14 (human) (UniProt Q16539). Nature of the assay: In vitro Inhibition of TNF-alpha Production in PBMC Cells.
Sequence of MAPK14 (human) (Q16539 whole entry, looked up): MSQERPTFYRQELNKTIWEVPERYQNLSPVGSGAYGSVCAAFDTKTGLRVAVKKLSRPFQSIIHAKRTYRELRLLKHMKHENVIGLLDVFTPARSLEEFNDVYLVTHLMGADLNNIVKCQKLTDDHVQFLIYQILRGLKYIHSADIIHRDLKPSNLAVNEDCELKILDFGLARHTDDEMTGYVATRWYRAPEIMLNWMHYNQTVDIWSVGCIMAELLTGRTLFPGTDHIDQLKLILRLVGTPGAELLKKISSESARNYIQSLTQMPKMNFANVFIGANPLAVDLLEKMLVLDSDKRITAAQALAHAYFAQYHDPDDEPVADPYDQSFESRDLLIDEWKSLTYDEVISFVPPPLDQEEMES
Details: not given
With `CCN1CCCC1CNc1c(-c2ccncc2)c(-c2ccc(F)cc2)c(C(=O)OC)n1C` (configuration not stated), the IC50 – broadly, the midpoint of a concentration-inhibition curve – worked out at 7750 nM. This lies in the single-digit micromolar range.
On the same count and under the same terms, the result for `CN(CCO)Cc1[nH]cc(-c2ccc(F)cc2)c1-c1ccncc1` reads 3 nM; that for `CCOC(=O)c1c(-c2ccc(C)cc2)c(-c2ccncc2)c(N2CCNCC2)n1C`, 60 nM; that for `CCCc1c(-c2ccnc(SC)n2)c(-c2ccc(F)cc2)cn1CCCN(C)C`, 148 nM.
With `COC(=O)c1c(-c2ccc(F)cc2)c(-c2ccncc2)c(N2CCC(NC(=O)OC(C)(C)C)C2)n1C` (configuration not stated), the IC50 is 1660 nM.
For `CC(O)c1c(-c2ccc(F)cc2)c(-c2ccncc2)cn1C` (configuration not stated), the IC50 amounted to 1450 nM. This IC50 and that of the molecule before are within 1.5-fold of each other.
Take `COC(=O)CCCn1c(NCCN2CCOCC2)c(-c2ccncc2)c(-c2ccc(F)cc2)c1C(=O)OC`: the 50% inhibitory concentration (IC50) worked out at 29 nM.
Take `COC(=O)c1c(-c2cccc(F)c2)c(-c2ccncc2)cn1C`: the IC50 came to 64 nM.
Same read-out and setting: the result for `O=C1CCCn2cc(-c3ccncc3)c(-c3ccc(F)cc3)c21` reads 150 nM; that for `CCCn1c(NCCN2CCOCC2)c(-c2ccncc2)c(-c2ccc(F)cc2)c1C(=O)OC`, 589 nM.
Turning to `N#Cc1[nH]cc(-c2ccncc2)c1-c1ccc(F)cc1`, the IC50 was 47 nM.
The molecule `CCCCNCc1c(-c2ccncc2)c(-c2ccc(F)cc2)cn1C` gave a concentration for half-maximal inhibition (IC50) of 1080 nM. Compared with the last molecule, the IC50 is about 23-fold higher.
With `Cn1cc(-c2ccncc2)c(-c2ccc(F)cc2)c1C#N`, the concentration for half-maximal inhibition (IC50) stood at 171 nM.
Molecule `COC(=O)c1c(-c2ccncc2)c(-c2ccc(F)cc2)c(N(C)CCN2CCOCC2)n1C` yielded an IC50 of 3510 nM.
In turn, `CCn1c(C(=O)OC)c(-c2ccc(F)cc2)c(-c2ccncc2)c1N(C)CCN1CCOCC1` displayed an IC50 of 105 nM.
The molecule `COC(=O)c1c(-c2ccc(F)cc2)c(-c2ccncc2)c(N2CCN(CC3CCCCC3)CC2)n1C` returned an IC50 of 573 nM.
On the same count and under the same terms, the result for `CCOC(=O)c1c(-c2ccc(F)cc2)c(-c2ccncc2)c(CCCO)n1C` reads 186 nM.
Consider `Cn1cc(-c2ccncc2)c(-c2ccc(F)cc2)c1-c1nnco1`, for which the half-inhibitory concentration (IC50) is 18 nM. This IC50 lies about 10-fold lower than the previous one.
Turning to `C[C@H](Nc1nccc(-c2c[nH]cc2-c2ccc(F)cc2)n1)c1ccccc1`, the IC50 was 3 nM.
With `Cn1c(C(=O)c2ccccc2)c(-c2ccc(F)cc2)c(-c2ccncc2)c1N1CCNCC1`, the half-maximal inhibitory concentration (IC50) was found to be 660 nM.
Consider `COC(=O)c1c(-c2ccc(F)cc2)c(-c2ccncc2)c(N2CCN(C(C)C)CC2)n1C`, for which the IC50 turned out to be 1980 nM. Compared with the last molecule, the IC50 is about 3-fold higher.
`COC(=O)c1c(-c2ccc(F)cc2)c(-c2ccncc2)c(NCCN2CCSCC2)n1C` yielded an IC50 of 69 nM.
Molecule `COC(=O)c1c(-c2ccc(F)cc2)c(-c2ccncc2)c(N2CCN(C(=O)OC(C)(C)C)CC2)n1C` registered an IC50 of 4260 nM.
In the case of `CCCc1c(-c2ccnc(N[C@@H](C)COC)n2)c(-c2ccc(F)cc2)cn1C(=O)OC(C)(C)C`, the IC50 is 50 nM.
With `COC(=O)c1c(-c2ccc(F)cc2)c(-c2ccncc2)c(NCCNC(C)=O)n1C`, the IC50 came to 1690 nM.
The same measure, in the same setting: the result for `Cn1cc(-c2ccncc2)c(-c2ccc(F)cc2)c1C(=O)NCC(=O)c1ccccc1` reads 157 nM; that for `CCCN1CCN(c2c(-c3ccncc3)c(-c3ccc(F)cc3)c(C(=O)OC)n2C)CC1`, 901 nM; that for `COC(=O)c1c(-c2ccc(F)cc2)c(-c2ccncc2)c(Nc2ccc3c(c2)N(C(C)=O)CC3)n1C`, 650 nM.
On the same count and under the same terms, the result for `COC(=O)c1c(-c2ccc(F)cc2)c(-c2ccncc2)c(N(C)CCN2CCSCC2)n1C` reads 183 nM; that for `COC(=O)c1c(-c2ccc(F)cc2)c(-c2ccncc2)c(N(C)CCN2CCOCC2)n1C`, 38 nM; that for `COC(=O)c1c(-c2ccc(F)cc2)c(-c2ccncc2)c(NCCN2CCCC2)n1C`, 1390 nM.
In turn, `CCOC(=O)c1c(-c2ccc(F)cc2)c(-c2ccncc2)cn1C` displayed an IC50 of 125 nM.
On the same count and under the same terms, the result for `COC(=O)c1c(-c2ccc(F)cc2)c(-c2ccncc2)c(NC(C)=O)n1C` reads 1490 nM; that for `CCOC(=O)c1[nH]cc(-c2ccc(F)cc2)c1-c1ccncc1`, 145 nM.
Molecule `CC(=O)c1c(-c2ccc(F)cc2)c(-c2ccncc2)cn1C` had an IC50 of 597 nM.
Take `CON(C)C(=O)c1c(-c2ccc(F)cc2)c(-c2ccncc2)cn1C`: the IC50 came out at 5840 nM. Compared with the last molecule, the IC50 is about 9.8-fold higher.
As for `COC(=O)c1c(-c2ccc(F)cc2)c(-c2ccncc2)c2n1CCC2C` (configuration not stated), the IC50 came to 208 nM.
Turning to `OCCNCc1[nH]cc(-c2ccc(F)cc2)c1-c1ccncc1`, the half-maximal inhibitory concentration (IC50) turned out to be 148 nM.
For the molecule `COC(=O)c1c(-c2ccc(F)cc2)c(-c2ccncc2)c(NC2CCN(Cc3ccccc3)CC2)n1C`, the half-maximal inhibitory concentration (IC50) amounted to 1310 nM. Compared with the last molecule, the IC50 is about 8.9-fold higher.
`Fc1ccc(-c2c[nH]c(CNCc3ccccc3)c2-c2ccncc2)cc1` displayed an IC50 of 6 nM.
Molecule `COC(=O)c1c(-c2ccc(F)cc2)c(-c2ccncc2)cn1CCO` had an IC50 of 692 nM.
As to `Cn1cc(-c2ccncc2)c(-c2ccc(F)cc2)c1-c1ncc(-c2ccccc2)o1`, the IC50 stood at 1030 nM.
Still for that read-out and setting: the result for `COC(=O)c1c(-c2ccc(F)cc2)c(-c2ccncc2)c(Nc2cccc(NC(C)=O)c2)n1C` reads 21 nM; that for `CN(C)C(=O)c1c(-c2ccc(F)cc2)c(-c2ccncc2)c(N2CCNCC2)n1C`, 120 nM; that for `CCOC(=O)c1c(-c2ccc(F)cc2)c(-c2ccncc2)c(Br)n1C`, 86 nM.
Consider `Cn1c(C#N)c(-c2ccc(F)cc2)c(-c2ccncc2)c1NCCN1CCOCC1`, for which the half-inhibitory concentration (IC50) is 351 nM.
For the molecule `COC(=O)CCn1c(C#CCCO)c(-c2ccncc2)c(-c2ccc(F)cc2)c1C(=O)OC`, the IC50 amounted to 5280 nM.
With `COC(=O)c1c(-c2ccc(F)cc2)c(-c2ccncc2)cn1CCN1CCOCC1`, the IC50 came out at 10000 nM.
Still for that read-out and setting: the result for `O=C1OCCn2cc(-c3ccncc3)c(-c3ccc(F)cc3)c21` reads 160 nM; that for `COC(=O)c1c(-c2ccc(F)cc2)c(-c2ccncc2)c(NCc2ccc(OC)cc2)n1C`, 42 nM.
`CN(CCN1CCOCC1)c1c(-c2ccncc2)c(-c2ccc(F)cc2)cn1C` came in with an IC50 of 117 nM.
Take `CNC(=O)c1c(-c2ccc(F)cc2)c(-c2ccncc2)cn1C`: the concentration for half-maximal inhibition (IC50) was 1480 nM.
In the case of `COC(=O)c1c(-c2ccc(F)cc2)c(-c2ccncc2)c(NCCNC(=O)OC(C)(C)C)n1C`, the IC50 was found to be 1640 nM.
Turning to `COC(=O)c1c(-c2ccc(F)cc2)c(-c2ccncc2)c(NCCc2ccncc2)n1C`, the IC50 came to 145 nM.
`O=C1CCn2cc(-c3ccncc3)c(-c3ccc(F)cc3)c21` had an IC50 of 138 nM.
Turning to `CCOC(=O)c1c(-c2ccc(Br)cc2)c(-c2ccncc2)cn1C`, the IC50 came to 211 nM. This IC50 is about 1.5-fold higher than that of the molecule before.

The test system of the next assay is MAPK14 (BALB/cJ mice). Description: In vivo Inhibition of LPS-induced TNF-alpha Production. To be noted: dose or concentration not given here.
Consider `CN(CCO)Cc1[nH]cc(-c2ccc(F)cc2)c1-c1ccncc1`, for which the inhibition – broadly, the relative decrease from the control value, in per cent – is -8%.
On to `CCOC(=O)c1c(-c2ccc(C)cc2)c(-c2ccncc2)c(N2CCNCC2)n1C`, for which the inhibition was determined as 79%.
Still for that read-out and setting: the result for `CCCc1c(-c2ccnc(SC)n2)c(-c2ccc(F)cc2)cn1CCCN(C)C` reads -37%; that for `COC(=O)c1c(-c2ccc(F)cc2)c(-c2ccncc2)c(NCCCN2CCOCC2)n1C`, 64%; that for `CCCc1c(-c2ccnc(N[C@@H](C)c3ccccc3)n2)c(-c2ccc(F)cc2)cn1C(=O)OC(C)(C)C`, -79%.
With `COC(=O)c1c(-c2ccc(F)cc2)c(-c2ccncc2)cn1CCN(C)C`, the inhibition is -32%.
As to `COC(=O)c1c(-c2ccc(F)cc2)c(-c2ccncc2)c(-c2ccncc2)n1C`, the inhibition came to 51%.
Take `Cn1c(CO)c(-c2ccc(F)cc2)c(-c2ccncc2)c1N1CCN(C(=O)OC(C)(C)C)CC1`: the inhibition was 83%.
Consider `COC(=O)C1CCn2c(I)c(-c3ccncc3)c(-c3ccc(F)cc3)c2C1=O` (configuration not stated), for which the inhibition amounted to 15%.
Still for that read-out and setting: the result for `CC(=O)N1CCN(c2c(-c3ccncc3)c(-c3ccc(F)cc3)c(-c3nnco3)n2C)CC1` reads 19%.
In the case of `COC(=O)c1c(-c2ccc(F)cc2)c(-c2ccncc2)c(NCCN2CCNCC2)n1C`, the inhibition came out at 77%.
